Calls of active or inactive are those of the source.
Key:
[1] = biological target: T1, RNA-binding protein pos-1 (Caenorhabditis elegans, UniProt G5EF15); assay: disruptors of C. elegans POS-1 RNA interaction – biochemical, fluorescence polarization, dose response (AID 1964);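 note: purified POS-1 fused to maltose binding protein made in E. coli; potency of compounds blocking POS-1 binding to fluorescent RNA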
T1 sequence (G5EF15 whole entry): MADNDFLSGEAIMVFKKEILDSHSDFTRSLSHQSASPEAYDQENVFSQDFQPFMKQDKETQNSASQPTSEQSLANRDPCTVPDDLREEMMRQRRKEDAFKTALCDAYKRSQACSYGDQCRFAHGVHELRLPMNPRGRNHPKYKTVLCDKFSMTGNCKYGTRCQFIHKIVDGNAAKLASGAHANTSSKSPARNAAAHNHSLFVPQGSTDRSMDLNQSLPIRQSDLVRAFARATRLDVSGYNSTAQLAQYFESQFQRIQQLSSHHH

[2] = biological target: 1-phosphatidylinositol 4,5-bisphosphate phosphodiesterase beta-3 (Homo sapiens, UniProt Q01970); assay: Fluorescence-based biochemical high throughput dose response assay to identify inhibitors of phospholipase C isozymes (PLC-B3).
Chain of 1-phosphatidylinositol 4,5-bisphosphate phosphodiesterase beta-3 (Q01970 whole entry): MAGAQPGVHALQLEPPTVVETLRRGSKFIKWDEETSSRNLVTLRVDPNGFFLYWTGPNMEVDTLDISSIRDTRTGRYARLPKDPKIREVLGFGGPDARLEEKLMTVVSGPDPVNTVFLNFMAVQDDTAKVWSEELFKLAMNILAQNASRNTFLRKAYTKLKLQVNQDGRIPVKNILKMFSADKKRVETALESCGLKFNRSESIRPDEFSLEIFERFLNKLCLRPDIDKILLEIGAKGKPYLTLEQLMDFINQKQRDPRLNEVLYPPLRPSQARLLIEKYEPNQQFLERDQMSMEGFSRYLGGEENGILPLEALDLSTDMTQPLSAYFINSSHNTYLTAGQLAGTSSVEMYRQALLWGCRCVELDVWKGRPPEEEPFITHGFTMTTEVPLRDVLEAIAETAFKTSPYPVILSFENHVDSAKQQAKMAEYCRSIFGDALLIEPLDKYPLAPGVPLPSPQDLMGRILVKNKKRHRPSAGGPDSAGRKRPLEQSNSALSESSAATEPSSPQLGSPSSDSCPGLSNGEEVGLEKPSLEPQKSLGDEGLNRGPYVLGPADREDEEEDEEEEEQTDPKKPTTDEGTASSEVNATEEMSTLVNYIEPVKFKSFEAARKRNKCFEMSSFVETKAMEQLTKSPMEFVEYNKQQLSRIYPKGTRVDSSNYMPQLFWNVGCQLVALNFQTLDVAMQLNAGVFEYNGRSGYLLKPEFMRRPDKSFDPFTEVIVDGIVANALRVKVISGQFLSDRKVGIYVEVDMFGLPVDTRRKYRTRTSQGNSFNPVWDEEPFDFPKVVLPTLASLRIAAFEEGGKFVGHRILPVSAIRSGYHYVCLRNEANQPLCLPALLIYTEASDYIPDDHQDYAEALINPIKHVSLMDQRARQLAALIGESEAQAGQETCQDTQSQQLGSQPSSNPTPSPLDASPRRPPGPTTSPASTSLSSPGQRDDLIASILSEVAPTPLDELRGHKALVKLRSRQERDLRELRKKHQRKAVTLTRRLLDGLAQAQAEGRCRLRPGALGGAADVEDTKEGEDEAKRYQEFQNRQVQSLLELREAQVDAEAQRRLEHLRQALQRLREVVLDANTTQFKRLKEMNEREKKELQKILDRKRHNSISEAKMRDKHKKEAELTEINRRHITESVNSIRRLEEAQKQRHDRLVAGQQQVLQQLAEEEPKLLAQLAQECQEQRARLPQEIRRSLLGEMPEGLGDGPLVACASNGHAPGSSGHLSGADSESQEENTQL

[3] = biological target: 1-phosphatidylinositol 4,5-bisphosphate phosphodiesterase gamma-1 (Homo sapiens, UniProt P19174); assay: Counterscreen for inhibitors of phospholipase C isozymes (PLC-B3): Fluorescence-based biochemical high throughput dose response assay to identify inhibitors of phospholipase C isozymes (PLC-gamma1).
Chain of 1-phosphatidylinositol 4,5-bisphosphate phosphodiesterase gamma-1 (P19174 whole entry): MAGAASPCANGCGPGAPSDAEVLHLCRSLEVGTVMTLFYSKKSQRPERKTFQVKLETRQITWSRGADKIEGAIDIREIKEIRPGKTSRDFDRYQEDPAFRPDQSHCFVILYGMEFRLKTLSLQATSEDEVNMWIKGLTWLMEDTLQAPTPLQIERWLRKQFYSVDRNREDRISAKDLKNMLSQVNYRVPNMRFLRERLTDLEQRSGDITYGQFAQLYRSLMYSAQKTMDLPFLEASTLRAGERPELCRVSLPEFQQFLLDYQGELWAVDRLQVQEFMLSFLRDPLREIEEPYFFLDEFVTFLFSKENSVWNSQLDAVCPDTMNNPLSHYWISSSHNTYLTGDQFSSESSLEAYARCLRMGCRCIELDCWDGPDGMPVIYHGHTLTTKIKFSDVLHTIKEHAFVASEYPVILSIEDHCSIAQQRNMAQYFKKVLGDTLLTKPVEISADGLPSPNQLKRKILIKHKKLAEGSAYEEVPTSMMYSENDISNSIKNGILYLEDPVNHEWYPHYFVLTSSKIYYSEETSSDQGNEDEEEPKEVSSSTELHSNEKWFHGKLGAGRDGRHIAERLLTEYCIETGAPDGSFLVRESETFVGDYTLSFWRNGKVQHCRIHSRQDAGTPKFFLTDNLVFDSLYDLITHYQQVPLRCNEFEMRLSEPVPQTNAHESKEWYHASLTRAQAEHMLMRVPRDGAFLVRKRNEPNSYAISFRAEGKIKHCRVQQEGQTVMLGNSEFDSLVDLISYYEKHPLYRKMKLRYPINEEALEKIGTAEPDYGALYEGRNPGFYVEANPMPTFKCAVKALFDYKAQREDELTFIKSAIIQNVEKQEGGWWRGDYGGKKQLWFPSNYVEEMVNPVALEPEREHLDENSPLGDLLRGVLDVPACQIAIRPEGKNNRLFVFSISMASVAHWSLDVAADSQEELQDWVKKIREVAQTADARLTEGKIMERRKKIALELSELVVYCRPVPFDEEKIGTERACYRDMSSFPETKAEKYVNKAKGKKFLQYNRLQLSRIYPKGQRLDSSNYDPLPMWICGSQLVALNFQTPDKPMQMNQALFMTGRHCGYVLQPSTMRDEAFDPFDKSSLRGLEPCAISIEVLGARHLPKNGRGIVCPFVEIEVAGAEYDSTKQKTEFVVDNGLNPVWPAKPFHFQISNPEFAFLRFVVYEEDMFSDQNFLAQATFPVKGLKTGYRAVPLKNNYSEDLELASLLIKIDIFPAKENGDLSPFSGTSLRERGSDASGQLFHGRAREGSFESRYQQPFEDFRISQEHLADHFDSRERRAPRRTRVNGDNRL

[4] = biological target: T2, Zinc finger protein mex-5 (Caenorhabditis elegans, UniProt Q9XUB2); assay: potency of MEX-5 RNA-binding blockers – biochemical, C. elegans, fluorescence polarization, dose response (AID 1960)
T2 sequence (Q9XUB2 whole entry): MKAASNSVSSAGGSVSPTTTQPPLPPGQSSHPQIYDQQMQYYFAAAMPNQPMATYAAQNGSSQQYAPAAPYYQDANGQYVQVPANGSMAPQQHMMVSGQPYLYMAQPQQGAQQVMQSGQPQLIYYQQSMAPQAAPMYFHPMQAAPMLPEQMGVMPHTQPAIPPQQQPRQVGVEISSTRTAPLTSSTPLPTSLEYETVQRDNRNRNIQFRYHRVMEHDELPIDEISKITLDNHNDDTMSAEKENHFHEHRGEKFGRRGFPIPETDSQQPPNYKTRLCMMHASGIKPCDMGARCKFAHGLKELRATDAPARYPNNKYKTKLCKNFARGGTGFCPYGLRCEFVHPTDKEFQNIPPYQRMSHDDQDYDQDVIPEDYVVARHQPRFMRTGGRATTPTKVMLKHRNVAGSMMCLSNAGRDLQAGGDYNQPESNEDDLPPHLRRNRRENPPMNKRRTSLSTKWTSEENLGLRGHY

[5] = Shn3 3'UTR reporter signal decrease – cell-based, Clone20 osteoblasts, firefly luciferase, cherry-pick, set 2, Schnurri-3 inhibitor project, dose response (AID 720490); type: functional;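 note: actives lower the luminescence signal as inhibitors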
[6] = toxicity toward HepG2 liver cells – cell-based, plate reader, cherry-pick, antagonist series, cytotoxicity control, dose response (AID 743416); type: functional
[7] = blockade of melanocortin 4 receptor signaling – cell-based, plate reader, cherry pick, counter-screen for LGR2 antagonist project, dose response (AID 743444); type: functional;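 note: transfected HEK 293 cells stimulated with alpha-MSH peptide; potency of inhibitors of the alpha-MSH evoked signal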
[8] = blockers of bursicon-stimulated LGR2 cAMP reporter – cell-based, HEK293, CRE-luciferase reporter, cherry pick, set 2, dose response (AID 743343); type: functional;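 note: transfected cells were stimulated with diluted bursicon conditioned medium after compound addition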
[9] = reduction of Shn3 3'UTR-driven luciferase in osteoblasts – cell-based, Clone20 osteoblasts, firefly luciferase, cherry-picked, dose response (AID 624132); type: functional;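 note: firefly luciferase luminescence from reporter carrying the Shn3 3'UTR in osteoblasts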
[10] = loss of viability in HepG2 cells – cell-based, CellTiter-Glo, cherry-picked, cytotoxicity control for Shn3 inhibitor project, dose response (AID 624134); type: functional
[11] = non-specific 3'UTR reporter inhibition in Clone20-Shn3RL – cell-based, Renilla luciferase, cherry-picked, counter-screen for Shn3 inhibitor project, dose response (AID 624133); type: functional
[12] = viability loss in HEK293 cells – cell-based, plate reader, cherry-picked samples, cytotoxicity control, dose response (AID 743446); type: functional
[13] = DRD fibroblast viability loss – cell-based, non-viral oncogenic, luminescence, dose response (AID 1934); type: functional; conditions: Homo sapiens
[14] = biological target: Endoplasmic reticulum aminopeptidase 1 (Homo sapiens, UniProt Q9NZ08); assay: inhibition of human ERAP1 enzyme activity – biochemical, cherry-pick, set 2, plate reader, dose response (AID 743314)
BJ [15] = assay: cells; type: functional, cell-based; conditions: Homo sapiens
BJ [16] = assay: BJ-TERT-LT-ST fibroblast viability loss – cell-based, RAS-independent, luminescence, dose response (AID 1935); type: functional; conditions: Homo sapiens;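 note: BJ fibroblasts immortalized with TERT plus LT and ST oncogenes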
[17] = A549 cell cytotoxicity, dose response, cytotoxicity control, plate reader, cherry-pick, antagonist series (AID 743412); type: functional, cell-based
[18] = biological target: Luciferin 4-monooxygenase (Photinus pyralis, UniProt P08659); assay: inhibition of purified Photinus pyralis luciferase – biochemical, luminescence, dose response (AID 1891)
Chain of Luciferin 4-monooxygenase (P08659 whole entry): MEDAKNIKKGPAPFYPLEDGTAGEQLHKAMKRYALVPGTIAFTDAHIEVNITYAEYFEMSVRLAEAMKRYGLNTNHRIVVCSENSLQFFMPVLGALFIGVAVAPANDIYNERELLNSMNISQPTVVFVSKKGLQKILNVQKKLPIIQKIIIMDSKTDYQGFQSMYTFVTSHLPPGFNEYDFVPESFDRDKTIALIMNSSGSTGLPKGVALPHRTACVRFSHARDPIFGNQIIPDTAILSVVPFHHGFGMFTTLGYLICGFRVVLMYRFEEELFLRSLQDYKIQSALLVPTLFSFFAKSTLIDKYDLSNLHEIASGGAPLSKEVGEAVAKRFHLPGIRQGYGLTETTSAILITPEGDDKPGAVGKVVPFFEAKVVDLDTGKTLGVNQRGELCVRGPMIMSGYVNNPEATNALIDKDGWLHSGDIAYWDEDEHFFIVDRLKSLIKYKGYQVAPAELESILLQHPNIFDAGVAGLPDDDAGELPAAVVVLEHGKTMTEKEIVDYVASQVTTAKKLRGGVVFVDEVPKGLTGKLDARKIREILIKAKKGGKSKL

BJ [19] = assay: BJ-TERT fibroblast viability loss – cell-based, RAS-independent, luminescence, dose response (AID 1933); type: functional; conditions: Homo sapiens
INS1 = assay: INS-1E survival protection against cytokine death – cell-based, luminescence, retest, dose response (AID 449756); type: functional; conditions: Rattus norvegicus;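 note: cell death triggered by IL-1 beta plus TNF-alpha plus IFN-gamma mixture; protective hits raise ATP signal compared with cytokine alone wells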
[20] = Luminescence Cell-Based Dose Confirmation HTS to Identify Inhibitors of Platelet Dense Granule Release. [Related pubchem assays: 1663 (Primary HTS), 1678 (Summary of Project)]; type: functional
Jurkat = assay: blockers of NF-kB activation in T cells – Jurkat, luciferase reporter, luminescence, B- and T-cell, dose response (AID 489004); type: functional, cell-based; conditions: Homo sapiens;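 note: NF-kB luciferase reporter Jurkat cells stimulated with PMA plus ionomycin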
[21] = HEK-293T viability loss, compound-treated – cell-based, uHTS hits, cytotoxicity control for B/T-cell NF-kB inhibitor project, dose response (AID 489019); type: functional;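 note: IC50 reflects cytotoxicity as loss of cell viability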
Caspase-6 = Caspase-6 (Homo sapiens, UniProt P55212); assay: inhibition of CASP6 peptide cleavage – biochemical, VEID-R110 fluorescence, cherry-pick, dose response (AID 720632)
Chain of Caspase-6 (P55212 24-179 limits assumed): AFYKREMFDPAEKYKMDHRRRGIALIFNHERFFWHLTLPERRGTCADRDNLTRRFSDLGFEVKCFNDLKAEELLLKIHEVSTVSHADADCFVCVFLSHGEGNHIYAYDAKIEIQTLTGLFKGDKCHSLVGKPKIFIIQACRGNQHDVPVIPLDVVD
Chain of Caspase-6 (P55212 194-293 limits assumed): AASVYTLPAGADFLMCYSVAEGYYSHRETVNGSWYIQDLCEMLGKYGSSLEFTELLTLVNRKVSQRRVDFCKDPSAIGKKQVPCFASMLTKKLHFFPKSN

Protein Wnt-3a = Protein Wnt-3a (Mus musculus, UniProt P27467); assay: SAR analysis of small molecule antagonists of Gli-SUFU in a Wnt3a luminescent reporter assay.; type: functional
Chain of Protein Wnt-3a (P27467 whole entry): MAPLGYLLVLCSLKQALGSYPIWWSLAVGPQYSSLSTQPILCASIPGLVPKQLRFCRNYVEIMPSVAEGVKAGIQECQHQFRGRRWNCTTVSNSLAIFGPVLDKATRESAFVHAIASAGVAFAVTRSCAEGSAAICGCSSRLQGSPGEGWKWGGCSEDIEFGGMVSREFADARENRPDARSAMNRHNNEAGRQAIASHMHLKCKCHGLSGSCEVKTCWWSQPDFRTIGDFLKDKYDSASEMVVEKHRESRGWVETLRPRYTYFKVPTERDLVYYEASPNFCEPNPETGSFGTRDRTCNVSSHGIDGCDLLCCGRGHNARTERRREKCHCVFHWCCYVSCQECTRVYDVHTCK

[22] = OVCAR8 cell viability loss – plate reader, dry powder samples, PAX8 project, dose response (AID 743197); type: functional, cell-based; conditions: OVCAR-8
[23] = OVCAR-3 cell viability loss – plate reader, dry powder samples, PAX8 inhibitor project, dose response (AID 743044); type: functional, cell-based
[24] = toxicity toward immortalized ovarian surface epithelium – cell-based, plate reader, dry powder samples, cytotoxicity control for PAX8 inhibitor project, dose response (AID 743045); type: functional
Paired box protein Pax-8 = Paired box protein Pax-8 (Homo sapiens, UniProt Q06710); assay: PAX8 transcriptional activity inhibition in RMG-I – RMG-I cells, luciferase, cherry-pick, dose response (AID 687027); type: functional, cell-based;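 note: luciferase reporter driven by Pax8 target thyroperoxidase promoter measured by SteadyGlo luminescence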
Chain of Paired box protein Pax-8 (Q06710 whole entry): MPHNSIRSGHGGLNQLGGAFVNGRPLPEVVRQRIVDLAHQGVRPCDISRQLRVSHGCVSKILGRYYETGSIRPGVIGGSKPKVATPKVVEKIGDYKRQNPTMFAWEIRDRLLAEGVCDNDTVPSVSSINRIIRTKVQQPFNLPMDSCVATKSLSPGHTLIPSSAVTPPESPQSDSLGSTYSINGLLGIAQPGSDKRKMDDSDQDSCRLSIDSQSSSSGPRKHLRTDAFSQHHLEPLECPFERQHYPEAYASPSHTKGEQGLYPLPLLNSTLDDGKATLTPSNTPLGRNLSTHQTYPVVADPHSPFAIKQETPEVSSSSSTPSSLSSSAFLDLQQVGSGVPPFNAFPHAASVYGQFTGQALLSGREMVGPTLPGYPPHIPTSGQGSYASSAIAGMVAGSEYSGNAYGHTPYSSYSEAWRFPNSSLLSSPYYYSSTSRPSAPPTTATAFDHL

[25] = biological target: Potassium channel subfamily K member 3 (Homo sapiens, UniProt O14649); assay: inhibition of human KCNK3 channel flux – CHO cells, FluxOR thallium flux, SAR follow-up (AID 652212); type: functional
Chain of Potassium channel subfamily K member 3 (O14649 whole entry): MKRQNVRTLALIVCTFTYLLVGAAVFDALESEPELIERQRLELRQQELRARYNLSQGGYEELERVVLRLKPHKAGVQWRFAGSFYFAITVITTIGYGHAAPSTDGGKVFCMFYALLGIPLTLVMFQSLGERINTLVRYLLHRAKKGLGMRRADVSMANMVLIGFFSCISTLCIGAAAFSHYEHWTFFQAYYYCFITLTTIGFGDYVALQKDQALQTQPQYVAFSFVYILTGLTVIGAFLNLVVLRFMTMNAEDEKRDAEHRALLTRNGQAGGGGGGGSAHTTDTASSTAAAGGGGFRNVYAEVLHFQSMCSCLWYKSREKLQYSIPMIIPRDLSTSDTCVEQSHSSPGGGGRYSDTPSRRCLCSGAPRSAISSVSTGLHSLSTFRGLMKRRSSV

Escherichia coli = assay: microbe, parasite or virus in culture
[26] = Luminescence Cell-Based Dose Response HTS to Identify Activators of Luciferase Translation or Activity in H4 […] Cells. [Related pubchem assays: 1829 (Project Summary), 1814 (Primary HTS)]; type: functional
Protein skinhead-1 = biological target: T3, Protein skinhead-1 (Caenorhabditis elegans, UniProt P34707); type: functional
T3 sequence (P34707 whole entry): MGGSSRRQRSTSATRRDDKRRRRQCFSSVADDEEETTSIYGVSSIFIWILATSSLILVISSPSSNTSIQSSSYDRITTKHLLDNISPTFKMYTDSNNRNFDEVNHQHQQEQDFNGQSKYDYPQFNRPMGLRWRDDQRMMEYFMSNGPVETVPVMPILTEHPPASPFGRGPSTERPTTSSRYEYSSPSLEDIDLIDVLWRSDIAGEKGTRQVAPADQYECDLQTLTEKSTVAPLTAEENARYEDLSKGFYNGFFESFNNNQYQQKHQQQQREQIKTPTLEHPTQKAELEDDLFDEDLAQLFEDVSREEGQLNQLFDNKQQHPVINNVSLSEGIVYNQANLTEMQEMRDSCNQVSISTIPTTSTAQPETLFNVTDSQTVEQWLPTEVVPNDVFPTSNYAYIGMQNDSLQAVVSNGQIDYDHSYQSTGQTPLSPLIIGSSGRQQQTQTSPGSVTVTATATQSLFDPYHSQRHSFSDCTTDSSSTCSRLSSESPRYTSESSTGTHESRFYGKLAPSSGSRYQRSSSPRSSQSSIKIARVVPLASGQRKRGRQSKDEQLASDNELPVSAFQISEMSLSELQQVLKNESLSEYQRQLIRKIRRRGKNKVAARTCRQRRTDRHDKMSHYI

H4 = assay: Luminescence Cell-Based Dose Response HTS to Identify Activators of 5'UTR Stem-Loop Driven Prion Protein mRNA Translation in H4 Neuroglioblastoma Cells. [Related pubchem assays: 1829 (Project Summary), 1814 (Primary HTS)]; type: functional; conditions: Homo sapiens
cells [27] = type: functional, cell-based
[28] = viability loss in HepG2 hepatoma cells – cell-based, ATP luminescence, cherry-pick, activator set 2, cytotoxicity control, dose response (AID 1053143); type: functional
cells [29] = type: functional, cell-based; remark: listed apart in the source
HEK293 = assay: EBV LMP1 TES2 canonical NF-kB signalling blockers – cell-based, HEK293, luciferase, cherry-pick, dose response (AID 588343); type: functional; conditions: Homo sapiens
[30] = biological target: T4, Nuclear receptor subfamily 0 group B member 1 (Homo sapiens, UniProt P51843); type: functional, cell-based;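 note: HEK293T cells transfected with SF-1 and DAX-1 plus StAR promoter luciferase reporter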
T4 sequence (P51843 whole entry): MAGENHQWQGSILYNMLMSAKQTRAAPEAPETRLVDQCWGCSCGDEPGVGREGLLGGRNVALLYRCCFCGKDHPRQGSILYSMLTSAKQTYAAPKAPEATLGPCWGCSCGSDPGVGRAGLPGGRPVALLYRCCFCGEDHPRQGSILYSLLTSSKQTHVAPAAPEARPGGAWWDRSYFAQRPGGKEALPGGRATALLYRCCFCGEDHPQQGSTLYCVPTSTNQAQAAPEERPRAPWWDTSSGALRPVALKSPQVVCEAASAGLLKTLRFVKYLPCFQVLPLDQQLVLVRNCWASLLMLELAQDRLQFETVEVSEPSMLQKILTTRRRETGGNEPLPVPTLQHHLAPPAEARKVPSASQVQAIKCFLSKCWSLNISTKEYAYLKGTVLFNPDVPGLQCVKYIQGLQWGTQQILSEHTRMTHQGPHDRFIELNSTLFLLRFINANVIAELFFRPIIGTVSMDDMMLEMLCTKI

cells [31] = type: functional, cell-based; remark: listed apart in the source

SMILES: N#C/C(=C\c1cc(O)c(O)c(O)c1)C(N)=O
- EC50 [1]: 134 µM (active)
- IC50 [2]: > 122 µM (inactive)
- IC50 [3]: > 122 µM (inactive)
- EC50 [4]: > 150 µM (inconclusive)

SMILES: COc1cc(NC(=O)c2cccc3c(-c4cccnc4)coc23)cc(OC)c1OC
- AC50 [5]: 5.23 µM (active)
- AC50 [6]: > 52 µM (inactive)
- AC50 [7]: 11.2 µM (active)
- AC50 [8]: 11.2 µM (active)
- AC50 [9]: 0.978 µM (active)
- AC50 [10]: 57.5 µM (active)
- AC50 [11]: 11.5 µM (active)
- AC50 [12]: 28.6 µM (active)

SMILES: Cc1cc2nc(-c3cccnc3O)[nH]c2cc1C
- EC50 [13]: 4.3 µM (active)
- AC50 [14]: 7.63 µM (active)
- EC50 (BJ [15]): 8.47 µM (active)
- EC50 (BJ [16]): 13.3 µM (active)
- AC50 [6]: 7.17 µM (active)
- AC50 [7]: 2.69 µM (active)
- AC50 [8]: 2.48 µM (active)
- AC50 [17]: 8.69 µM (active)
- EC50 [18]: 1.07 µM (active)
- EC50 (BJ [19]): 4.58 µM (active)
- AC50 (INS1): 3.23 µM (active)
- EC50 [20]: 1.73 µM (active)
- AC50 [12]: 6.43 µM (active)

SMILES: CCn1c(C)cc(C(=O)COC(=O)c2ccccc2[N+](=O)[O-])c1C
- AC50 [5]: < 0.135 µM (active)
- IC50 (Jurkat): < 0.16 µM (active)
- IC50 [21]: > 80 µM (inactive)
- AC50 [9]: < 0.26 µM (active)

SMILES: NNC(=O)CNC(=O)Nc1nnc(S)s1
- AC50 (Caspase-6): 6.63 µM (active)

SMILES: CC1CCCCN1c1cc(NC(=O)c2ccccc2)ncn1 (stereo unspecified)
- IC50 (Protein Wnt-3a): > 21.8 µM (inactive)

SMILES: COc1ccc(S(=O)(=O)Nc2ccc3c(c2)C(=O)N([C@@H](C)CO)C[C@@H](C)[C@@H](CN(C)Cc2ccc(C(F)(F)F)cc2)OCCCC[C@@H](C)O3)cc1
- AC50 [22]: 22.5 µM (active)
- AC50 [23]: 23.1 µM (active)
- AC50 [24]: 24 µM (active)
- AC50 (Paired box protein Pax-8): 6.1 µM (active)

SMILES: O=C(Nc1cccc(NC(=O)c2ccco2)c1)c1ccccc1
- IC50 [25]: 0.036 µM (active)
- AC50 (Escherichia coli): 25 µM (active)

SMILES: O=C(NC1CCCC1)c1cc(-c2ccccc2)on1
- EC50 [26]: 0.355 µM (active)
- IC50 (Protein skinhead-1): > 100 µM (inactive)
- EC50 (H4): 3.13 µM (active)
- EC50 (cells [27]): > 350 µM (not active)
- AC50 [28]: 26 µM (active)
- EC50 (cells [29]): 330 µM (active)

SMILES: O=C(Nc1cc(N2CCCCC2)ncn1)c1cccc2ccccc12
- IC50 (Protein Wnt-3a): > 21.8 µM (inactive)

SMILES: CC(C)c1ccccc1NC(=O)Nc1ccc2c(c1)OCO2
- IC50 [2]: > 123 µM (inactive)
- IC50 [3]: > 123 µM (inactive)

SMILES: C[C@@H]1CCCCO[C@H](CN(C)Cc2ccc(C(=O)Nc3ccccc3N)cc2)[C@@H](C)CN([C@@H](C)CO)C(=O)c2cc(NS(=O)(=O)c3ccc(Cl)cc3)ccc2O1
- AC50 [22]: 41.6 µM (active)
- AC50 [23]: 7.38 µM (active)
- AC50 [24]: 46.9 µM (active)
- AC50 (Paired box protein Pax-8): 11.7 µM (active)

SMILES: Cc1ccnc(NC(=O)c2ccc(OCC3CCCO3)cc2)c1 (stereo unspecified)
- AC50 (HEK293): 2.57 µM (active)
- EC50 [18]: 7.94 µM (active)
- IC50 [30]: > 67.5 µM (inactive)
- EC50 [20]: 5.2 µM (active)
- AC50 [28]: 26 µM (active)
- IC50 (cells [31]): > 67.5 µM (inactive)
